Patent publication US11739098B2 (BRISTOL-MYERS SQUIBB COMPANY, priority 2017, dated 2023)

What was measured:
Format in all cases: cell-based
human TLR7 = target: T1, human TLR7 (Homo sapiens, UniProt Q9NYK1); assay: TLR7 inhibition reporter assay (HEK-Blue cells, SEAP reporter, gardiquimod stimulation); conditions: HEK-Blue cells overexpressing human TLR7, SEAP reporter, gardiquimod 7.5 μM
T1 construct: host or cells: HEK-Blue cells (HEK293-derived reporter line)
T1 sequence (Q9NYK1 27-1049): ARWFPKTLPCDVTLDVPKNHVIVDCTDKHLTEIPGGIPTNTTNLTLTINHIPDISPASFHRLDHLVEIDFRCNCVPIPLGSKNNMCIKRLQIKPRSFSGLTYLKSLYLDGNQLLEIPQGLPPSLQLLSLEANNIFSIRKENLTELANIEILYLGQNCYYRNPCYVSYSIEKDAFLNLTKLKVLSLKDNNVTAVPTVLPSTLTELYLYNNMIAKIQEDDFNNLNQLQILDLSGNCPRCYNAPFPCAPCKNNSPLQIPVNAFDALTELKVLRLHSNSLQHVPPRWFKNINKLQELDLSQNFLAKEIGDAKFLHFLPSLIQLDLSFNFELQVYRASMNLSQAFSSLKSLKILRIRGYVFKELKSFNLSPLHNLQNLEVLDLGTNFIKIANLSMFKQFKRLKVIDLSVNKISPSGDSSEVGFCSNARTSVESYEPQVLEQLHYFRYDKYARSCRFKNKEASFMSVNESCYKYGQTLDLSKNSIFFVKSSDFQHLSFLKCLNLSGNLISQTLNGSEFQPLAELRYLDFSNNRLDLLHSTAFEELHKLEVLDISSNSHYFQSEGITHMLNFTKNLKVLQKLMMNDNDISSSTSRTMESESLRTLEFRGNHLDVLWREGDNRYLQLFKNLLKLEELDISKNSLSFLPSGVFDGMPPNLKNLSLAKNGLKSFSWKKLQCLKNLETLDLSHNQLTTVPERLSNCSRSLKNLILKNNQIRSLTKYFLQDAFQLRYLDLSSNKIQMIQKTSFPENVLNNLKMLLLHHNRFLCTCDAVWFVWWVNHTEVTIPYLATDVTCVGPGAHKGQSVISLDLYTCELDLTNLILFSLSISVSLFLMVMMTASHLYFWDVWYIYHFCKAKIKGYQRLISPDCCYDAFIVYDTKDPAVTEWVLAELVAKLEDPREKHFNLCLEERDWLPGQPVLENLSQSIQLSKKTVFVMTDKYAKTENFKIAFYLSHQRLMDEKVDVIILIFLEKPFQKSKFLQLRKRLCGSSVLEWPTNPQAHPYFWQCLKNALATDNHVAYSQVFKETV
In short: (§1)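 After 22 h at 37 °C, SEAP secretion was measured from human TLR7-, TLR8- or TLR9-expressing HEK-Blue reporter cells given compound (0.05 nM–50 μM) 30 min before agonist: 7.5 μM gardiquimod, 15.9 μM R848 or 5 nM ODN2006 respectively. Percent inhibition referenced to agonist-plus-DMSO and known-inhibitor wells.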

human TLR8 = target: T2, human TLR8 (Homo sapiens, UniProt Q9NR97); assay: TLR8 inhibition reporter assay (HEK-Blue cells, SEAP reporter, R848 stimulation); conditions: HEK-Blue cells overexpressing human TLR8, SEAP reporter, R848 15.9 μM
T2 construct: host or cells: HEK-Blue cells (HEK293-derived reporter line)
T2 sequence (Q9NR97 27-1041): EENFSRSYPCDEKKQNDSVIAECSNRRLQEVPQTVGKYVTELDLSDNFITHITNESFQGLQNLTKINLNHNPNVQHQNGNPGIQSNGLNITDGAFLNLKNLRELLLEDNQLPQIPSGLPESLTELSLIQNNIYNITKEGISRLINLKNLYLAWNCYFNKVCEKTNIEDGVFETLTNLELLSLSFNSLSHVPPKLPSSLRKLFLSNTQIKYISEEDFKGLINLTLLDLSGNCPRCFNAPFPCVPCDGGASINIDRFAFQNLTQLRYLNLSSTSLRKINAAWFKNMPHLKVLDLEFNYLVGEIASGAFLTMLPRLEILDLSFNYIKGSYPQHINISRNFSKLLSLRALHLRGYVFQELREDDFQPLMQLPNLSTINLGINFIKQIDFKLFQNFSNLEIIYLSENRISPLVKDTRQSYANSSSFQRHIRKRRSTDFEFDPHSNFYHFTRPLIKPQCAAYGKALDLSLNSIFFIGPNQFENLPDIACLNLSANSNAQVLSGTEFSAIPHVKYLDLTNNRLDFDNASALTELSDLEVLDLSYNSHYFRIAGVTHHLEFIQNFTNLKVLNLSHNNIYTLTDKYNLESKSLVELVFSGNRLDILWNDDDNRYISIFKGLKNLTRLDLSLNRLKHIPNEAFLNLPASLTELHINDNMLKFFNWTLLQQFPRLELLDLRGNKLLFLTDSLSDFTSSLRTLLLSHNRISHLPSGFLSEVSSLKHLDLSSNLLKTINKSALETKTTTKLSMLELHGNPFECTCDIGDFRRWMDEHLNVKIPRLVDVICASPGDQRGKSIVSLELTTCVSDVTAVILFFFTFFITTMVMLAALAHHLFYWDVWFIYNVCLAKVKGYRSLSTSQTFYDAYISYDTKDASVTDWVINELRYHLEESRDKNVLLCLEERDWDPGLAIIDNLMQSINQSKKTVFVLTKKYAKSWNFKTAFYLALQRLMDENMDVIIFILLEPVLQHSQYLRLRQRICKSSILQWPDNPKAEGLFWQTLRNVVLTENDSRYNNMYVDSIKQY
In short: as §1

human TLR9 = target: T3, human TLR9 (Homo sapiens, UniProt Q9NR96); assay: TLR9 inhibition reporter assay (HEK-Blue cells, SEAP reporter, ODN2006 stimulation); conditions: HEK-Blue cells overexpressing human TLR9, SEAP reporter, ODN2006 5 nM
T3 construct: host or cells: HEK-Blue cells (HEK293-derived reporter line)
T3 sequence (Q9NR96 26-1032): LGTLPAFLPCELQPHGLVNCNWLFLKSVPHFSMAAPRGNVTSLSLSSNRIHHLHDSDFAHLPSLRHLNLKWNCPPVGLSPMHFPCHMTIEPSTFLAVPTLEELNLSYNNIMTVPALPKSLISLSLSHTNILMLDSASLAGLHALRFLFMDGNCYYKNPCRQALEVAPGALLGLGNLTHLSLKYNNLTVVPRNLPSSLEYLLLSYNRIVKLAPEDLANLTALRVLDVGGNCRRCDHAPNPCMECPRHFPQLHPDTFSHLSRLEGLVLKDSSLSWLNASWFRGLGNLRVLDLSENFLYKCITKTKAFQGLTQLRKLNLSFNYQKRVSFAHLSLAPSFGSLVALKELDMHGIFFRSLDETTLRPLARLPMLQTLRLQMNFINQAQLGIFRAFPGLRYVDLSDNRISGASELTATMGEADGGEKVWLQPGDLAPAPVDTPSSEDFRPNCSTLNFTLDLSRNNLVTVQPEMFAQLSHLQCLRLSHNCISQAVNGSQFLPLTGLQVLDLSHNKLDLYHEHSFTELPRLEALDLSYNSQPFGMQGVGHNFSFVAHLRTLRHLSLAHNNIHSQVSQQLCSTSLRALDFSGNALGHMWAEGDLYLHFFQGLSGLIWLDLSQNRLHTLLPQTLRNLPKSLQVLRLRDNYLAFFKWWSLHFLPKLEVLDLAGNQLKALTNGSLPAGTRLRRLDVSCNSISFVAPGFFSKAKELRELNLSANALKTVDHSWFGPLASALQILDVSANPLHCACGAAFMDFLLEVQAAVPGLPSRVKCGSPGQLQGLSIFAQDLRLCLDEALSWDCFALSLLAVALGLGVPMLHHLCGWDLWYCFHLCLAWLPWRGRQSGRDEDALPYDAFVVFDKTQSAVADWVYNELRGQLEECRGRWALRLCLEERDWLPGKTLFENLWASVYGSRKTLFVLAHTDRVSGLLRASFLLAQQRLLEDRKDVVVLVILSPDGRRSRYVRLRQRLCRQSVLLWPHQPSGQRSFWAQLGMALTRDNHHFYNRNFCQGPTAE
In short: as §1

SMILES | IC50 (human TLR7) [µM] | IC50 (human TLR8) [µM] | IC50 (human TLR9) [µM]
CCc1c(-c2ccnc3[nH]ccc23)[nH]c2ccc(C3CCN(C4CCN(C(C)C)CC4)CC3)cc12 [Example 850, 4-(3-ethyl-5-(1′-isopropyl-[1,4′-bipiperidin]-4-yl)-1H-indol-2-yl)-1H-pyrrolo[2,3-b]pyridine] | < 0.1 | < 0.1 | 0.1 to 1
CCc1c(-c2ccnc3[nH]ncc23)[nH]c2ccc(C3CCN(Cc4cocn4)CC3)cc12 [Example 920, 4-((4-(3-ethyl-2-(1H-pyrazolo[3,4-b]pyridin-4-yl)-1H-indol-5-yl)piperidin-1-yl)methyl)oxazole] | 0.1 to 1 | < 0.1 | 1 to 50
CNC(=O)CN1CCC(c2ccc3[nH]c(-c4cc(Cl)c5ncccc5c4)c(C(C)C)c3c2)CC1 [Example 381, 2-(4-(2-(8-chloroquinolin-6-yl)-3-isopropyl-1H-indol-5-yl)piperidin-1-yl)-N-methylacetamide] | < 0.1 | 0.1 to 1 | 1 to 50
CCCCc1nc(Cl)c(CN2CCC(c3ccc4[nH]c(-c5ccnc6[nH]ncc56)c(C(C)C)c4c3)CC2)[nH]1 [Example 896, 4-(5-(1-((2-butyl-4-chloro-1H-imidazol-5-yl)methyl)piperidin-4-yl)-3-isopropyl-1H-indol-2-yl)-1H-pyrazolo[3,4-b]pyridine] | 0.1 to 1 | < 0.1 | 1 to 50
CCc1c(-c2ccnc3[nH]ncc23)[nH]c2ccc(C3CCN(CCNC)CC3)cc12 [Example 654, 2-(4-(3-ethyl-2-(1H-pyrazolo[3,4-b]pyridin-4-yl)-1H-indol-5-yl)piperidin-1-yl)-N-methylethan-1-amine] | < 0.1 | < 0.1 | 0.1 to 1
CC(C)c1c(-c2cn3cnnc3c(=O)n2C)[nH]c2ccc(C3CCNCC3)cc12 [Example 237, 6-(3-isopropyl-5-(piperidin-4-yl)-1H-indol-2-yl)-7-methyl-[1,2,4]triazolo[4,3-a]pyrazin-8(7H)-one] | > 3.13 | > 3.13 | 1 to 50
CC(C)c1c(-c2cnc3ccnn3c2)[nH]c2ccc(C3CCN(C4COC4)CC3)cc12 [Example 713, 6-(3-isopropyl-5-(1-(oxetan-3-yl)piperidin-4-yl)-1H-indol-2-yl)pyrazolo[1,5-a]pyrimidine] | > 3.13 | > 3.13 | 1 to 50
CCc1c(-c2ccnc3[nH]ncc23)[nH]c2ccc(C3CCN(Cc4nc(C)oc4C)CC3)cc12 [Example 898, 4-((4-(3-ethyl-2-(1H-pyrazolo[3,4-b]pyridin-4-yl)-1H-indol-5-yl)piperidin-1-yl)methyl)-2,5-dimethyloxazole] | 0.1 to 1 | < 0.1 | 1 to 50
CC(C)c1c(-c2cnc3cn[nH]c3c2)[nH]c2ccc(C3CCN(C(=O)CN(C)C)CC3)cc12 [Example 526, 2-(dimethylamino)-1-(4-(3-isopropyl-2-(1H-pyrazolo[4,3-b]pyridin-6-yl)-1H-indol-5-yl)piperidin-1-yl)ethan-1-one] | < 0.1 | < 0.1 | 1 to 50
Cc1c(-c2[nH]c3ccc(C4CCN(CC(=O)N(C)C)CC4)cc3c2C(C)C)ccc2c1cnn2C [Example 382, 2-(4-(2-(1,4-dimethyl-1H-indazol-5-yl)-3-isopropyl-1H-indol-5-yl)piperidin-1-yl)-N,N-dimethylacetamide] | < 0.1 | < 0.1 | 1 to 50
CNCC(=O)N1CCC(c2ccc3[nH]c(-c4cnc5ccnn5c4)c(C(C)C)c3c2)CC1 [Example 503, 1-(4-(3-isopropyl-2-(pyrazolo[1,5-a]pyrimidin-6-yl)-1H-indol-5-yl)piperidin-1-yl)-2-(methylamino)ethan-1-one] | 0.1 to 1 | > 3.13 | 0.1 to 1
CC(C)c1c(-c2c[nH]c3ccncc23)[nH]c2ccc(C3CCNCC3)cc12 [Example 14, 3-(3-isopropyl-5-(piperidin-4-yl)-1H-indol-2-yl)-1H-pyrrolo[3,2-c]pyridine] | > 3.13 | > 3.13 | 0.1 to 1
